Measurements published in ChEMBL document CHEMBL1909294, “Translating clinical findings into knowledge in drug safety evaluation--drug induced liver injury prediction system (DILIps)” (PLoS Comput Biol, 2011).

What was measured:
Hepatotoxicity [1] = tested on: Hepatotoxicity;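 for HepSE bilirubinemia: bilirubinemia hepatic side effect score drawn from the DILIps training data, a prediction system for drug-induced liver injury; call rule not given here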;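 for HepSE cholecystitis: Cholecystitis-related hepatic side effect score drawn from the DILIps (drug-induced liver injury prediction) training data set; call rule not given here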;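 for HepSE cirrhosis: cirrhosis hepatic side effect score taken from the DILIps (drug-induced liver injury prediction) training set; call rule not given here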;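 for HepSE elevated liver function tests: hepatic side effect score for raised liver function tests, as recorded in the DILIps training set used for predicting drug-induced liver injury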; for HepSE hepatic failure: call rule not given here;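 for HepSE hepatomegaly: hepatic side effect score for hepatomegaly, taken from the training set of the DILIps drug-induced liver injury prediction system; call rule not given here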;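 for HepSE liver function tests abnormal: hepatic side effect score taken from the DILIps (drug-induced liver injury prediction system) training data, here covering abnormal liver function test findings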
Hepatotoxicity [2] = tested on: Hepatotoxicity; remark: listed apart in the source;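 for HepSE bilirubinemia: bilirubinemia hepatic side effect score drawn from the DILIps training data, a prediction system for drug-induced liver injury; call rule not given here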;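 for HepSE cholecystitis: Cholecystitis-related hepatic side effect score drawn from the DILIps (drug-induced liver injury prediction) training data set; call rule not given here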;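 for HepSE cirrhosis: cirrhosis hepatic side effect score taken from the DILIps (drug-induced liver injury prediction) training set; call rule not given here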;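 for HepSE elevated liver function tests: hepatic side effect score for raised liver function tests, as recorded in the DILIps training set used for predicting drug-induced liver injury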; for HepSE hepatic failure: call rule not given here;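 for HepSE liver function tests abnormal: hepatic side effect score taken from the DILIps (drug-induced liver injury prediction system) training data, here covering abnormal liver function test findings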
Hepatotoxicity [3] = tested on: Hepatotoxicity; remark: listed apart in the source;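 for HepSE bilirubinemia: bilirubinemia hepatic side effect score drawn from the DILIps training data, a prediction system for drug-induced liver injury; call rule not given here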;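 for HepSE cholecystitis: Cholecystitis-related hepatic side effect score drawn from the DILIps (drug-induced liver injury prediction) training data set; call rule not given here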;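 for HepSE cirrhosis: cirrhosis hepatic side effect score taken from the DILIps (drug-induced liver injury prediction) training set; call rule not given here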;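 for HepSE elevated liver function tests: hepatic side effect score for raised liver function tests, as recorded in the DILIps training set used for predicting drug-induced liver injury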; for HepSE hepatic failure: call rule not given here;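 for HepSE liver function tests abnormal: hepatic side effect score taken from the DILIps (drug-induced liver injury prediction system) training data, here covering abnormal liver function test findings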
Hepatotoxicity [4] = tested on: Hepatotoxicity; remark: listed apart in the source;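 for HepSE bilirubinemia: bilirubinemia hepatic side effect score drawn from the DILIps training data, a prediction system for drug-induced liver injury; call rule not given here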;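 for HepSE cholecystitis: Cholecystitis-related hepatic side effect score drawn from the DILIps (drug-induced liver injury prediction) training data set; call rule not given here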;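 for HepSE cirrhosis: cirrhosis hepatic side effect score taken from the DILIps (drug-induced liver injury prediction) training set; call rule not given here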;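 for HepSE elevated liver function tests: hepatic side effect score for raised liver function tests, as recorded in the DILIps training set used for predicting drug-induced liver injury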; for HepSE hepatic failure: call rule not given here;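 for HepSE liver function tests abnormal: hepatic side effect score taken from the DILIps (drug-induced liver injury prediction system) training data, here covering abnormal liver function test findings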
Hepatotoxicity [5] = tested on: Hepatotoxicity; remark: listed apart in the source; for HepSE hepatic failure: call rule not given here
Hepatotoxicity [6] = tested on: Hepatotoxicity; remark: listed apart in the source; for HepSE hepatic failure: call rule not given here
Hepatotoxicity [7] = tested on: Hepatotoxicity; remark: listed apart in the source
Hepatotoxicity [8] = tested on: Hepatotoxicity; remark: listed apart in the source
Hepatotoxicity [9] = tested on: Hepatotoxicity; remark: listed apart in the source
Hepatotoxicity [10] = tested on: Hepatotoxicity; remark: listed apart in the source
Hepatotoxicity [11] = tested on: Hepatotoxicity; remark: listed apart in the source
Hepatotoxicity [12] = tested on: Hepatotoxicity; remark: listed apart in the source
Hepatotoxicity [13] = tested on: Hepatotoxicity; remark: listed apart in the source
Hepatotoxicity [14] = tested on: Hepatotoxicity; remark: listed apart in the source

SMILES	HepSE_bilirubinemia (Hepatotoxicity [1])	HepSE_cirrhosis (Hepatotoxicity [2])	HepSE_cholecystitis (Hepatotoxicity [3])	HepSE_liver function tests abnormal (Hepatotoxicity [4])	HepSE_hepatic failure (Hepatotoxicity [5])	HepSE_elevated liver function tests (Hepatotoxicity [6])	HepSE_hepatitis (Hepatotoxicity [7])	HepSE_hepatomegaly (Hepatotoxicity [8])	HepSE_liver disease (Hepatotoxicity [9])	HepSE_hepatic necrosis (Hepatotoxicity [10])	HepSE_Combined Scores (Hepatotoxicity [11])	HepSE_cholelithiasis (Hepatotoxicity [12])	HepSE_liver fatty (Hepatotoxicity [13])	HepSE_jaundice (Hepatotoxicity [14])
CCCC(C)(COC(N)=O)COC(=O)NC(C)C (stereo not drawn) [CARISOPRODOL]	0	0	0	0	0	0	0	0	0	0	0	0	0	0
O=NN(CCCl)C(=O)NCCCl [CARMUSTINE]	0	0	0	1	0	0	0	0	0	0	1	0	0	0
C[N+](C)(C)CC(O)CC(=O)[O-] (stereo not drawn) [CARNITINE]	0	0	0	0	0	0	0	0	0	0	0	0	0	0
CC(C)(C)NCC(O)COc1cccc2c1CCC(=O)N2 (stereo not drawn) [CARTEOLOL]	0	0	0	0	0	0	0	0	0	0	0	0	0	0
COc1ccccc1OCCNCC(O)COc1cccc2[nH]c3ccccc3c12 (stereo not drawn) [CARVEDILOL]	1	0	0	0	0	0	0	0	0	0	1	0	0	0
CC[C@H](C)C[C@H](C)CCCCCCCCC(=O)N[C@H]1C[C@@H](O)[C@@H](NCCN)NC(=O)[C@@H]2[C@@H](O)CCN2C(=O)[C@H]([C@H](O)CCN)NC(=O)[C@H]([C@H](O)[C@@H](O)c2ccc(O)cc2)NC(=O)[C@@H]2C[C@@H](O)CN2C(=O)[C@H]([C@@H](C)O)NC1=O [CASPOFUNGIN]	1	0	0	0	1	0	0	1	0	1	5	0	0	1
N[C@@H](C(=O)N[C@@H]1C(=O)N2C(C(=O)O)=C(Cl)CS[C@H]12)c1ccccc1 [CEFACLOR ANHYDROUS]	0	0	0	0	0	0	1	0	0	0	2	0	0	1
